{"source": "patent US20060135608A1", "about": "“Eicosapentaenoic acid (epa) for treating anorexia nervosa (an) and bulimia” (priority 2002, published 2006)", "key": {"[1]": {"test_system": "patients with anorexia nervosa", "experiment": "Example 2: seven patients with anorexia nervosa or related disorders treated with 1 g/day E-EPA", "type": "in vivo, human", "description": "Seven patients underwent treatment of their disorders using EPA. FIGS. 1-5 summarise the results of this study. Participants were given 1 g/day ethyl-EPA (E-EPA) for an initial 3 month period. The E-EPA provided by Laxdale Limited was over 95% pure EPA. If the patient and family wished to continue beyond 3 months, the dose was continued, and in some cases increased beyond 1 g/day. All patients were offered the standard treatment available at the local district health services, including full psychiatric and physical assessment, regular monitoring of physical parameters. Parameters monitored on a monthly basis included the patient's weight and height. BMI, and average body weight and height (ABW) were calculated using Weight 4 Height software (based on 1990 British reference data by the Child Growth Foundation). The following standard psychometric measures were used: EDI-2, BDI-2, CGAS, CGI-S, Morgan-Russell, and patient Likert Scales (including problems, general and improvement)."}, "[2]": {"test_system": "patient with AN", "experiment": "Example 1: case of a patient with AN treated with 1 g/d ethyl-EPA", "type": "in vivo, human", "description": "A patient presented with a 14-month history of dieting and eating difficulties. These had started with dietary restrictions and excessive exercise and proceeded to laxative abuse. Two months prior to being first seen they had stopped taking all solid food. When first seen their weight was still within the normal range for their height at 55 kg for 1.63 m. However, they had lost 8 kg since stopped solid food, had stopped menstruation and begun to grow the fine, downy “lanugo” hair over their body which is common in AN.\nThey were treated with a standard AN regime of family therapy, psychotherapy and dietary advice. This was ineffective and over the next two months they lost around 10 kg which necessitated their admission to hospital. At this point they were extremely distressed and unable or unwilling to maintain a conversation. Despite their emaciation they were still preoccupied with being fat and wanted to lose more weight. Their heart rate was very slow and their blood glucose was low, signs of starvation. They were treated as an emergency with compulsory naso-gastric feeding with parental consent. After two weeks of this therapy they had gained a little over 2 kg and begun to eat small amounts by mouth. At the end of this time their family removed them from hospital against medical advice.\nOver the following ten days they lost a further 5 kg in weight to 42 kg. Their doctors believed that their life was in danger and so obtained an order for compulsory admission to hospital. At the start of this admission they were treated with 1 g/d of ethyl-eicosapentaenoate (E-EPA). This transformed their response to treatment. […] Their mood and cognitive functions improved and they became normally communicative. Instead of being obsessed by weight and food to the exclusion of everything else, they became interested in all aspects of their life and their future. […] After 12 weeks they were discharged from hospital and their body weight stabilised around a normal 62-65 kg. They took a summer job which they enjoyed and completed successfully and enrolled in a college course."}, "[3]": {"conditions": "Patient 2, 1-year follow-up, dosage increased to 2 g/day in later stages"}, "[4]": {"conditions": "Patient 5, after three months, 1 g/day"}, "[5]": {"conditions": "Patient 6, end of three months, 1 g/day"}, "[6]": {"conditions": "3 months after discharge, scored 0 to 12"}}}
{"smiles": "CC/C=C\\C/C=C\\C/C=C\\C/C=C\\C/C=C\\CCCC(=O)OCC", "note": "[E-EPA, ethyl-eicosapentaenoate]", "values": [{"measurement": "ABW", "setting": "[1]; [3]", "result": 88.3, "unit": "%"}, {"measurement": "BMI", "setting": "[1]; [3]", "result": 17.74}, {"measurement": "clinical response", "setting": "[1]; Patient 2, after restart of E-EPA and zinc treatment", "result": "significant improvement"}, {"measurement": "lowest ABW", "setting": "[1]; Patient 2, after stopping E-EPA at 6 months", "result": 73, "unit": "%"}, {"measurement": "clinical response", "setting": "[1]; Patient 2, by three months, 1 g/day", "result": "partially improved"}, {"measurement": "ABW", "setting": "[1]; Patient 2, three months, 1 g/day, 84.4% after NG feeding", "result": 86.34, "unit": "%"}, {"measurement": "growth in height", "setting": "[1]; Patient 3, in three months, 1 g/day", "result": 3, "unit": "cm"}, {"measurement": "mental state", "setting": "[1]; Patient 3, three months, 1 g/day", "result": "significantly improved"}, {"measurement": "BMI", "setting": "[1]; Patient 3, three months, 1 g/day, 13.3 at referral", "result": 15.5}, {"measurement": "ABW", "setting": "[1]; Patient 3, three months, 1 g/day, 74.4% at referral", "result": 81, "unit": "%"}, {"measurement": "psychometric measures", "setting": "[1]; Patient 4, 1 g/day", "result": "marked improvement"}, {"measurement": "weight stabilised, ABW", "setting": "[1]; Patient 4, 1 g/day for a total of 6 months, 83.9% at discharge from paediatric hospital", "result": "around 85.5%"}, {"measurement": "mood", "setting": "[1]; Patient 4, after two months, 1 g/day", "result": "dramatic improvement"}, {"measurement": "ABW", "setting": "[1]; Patient 4, within three months after they stopped taking the E-EPA", "result": 80, "unit": "%"}, {"measurement": "panic attacks", "setting": "[1]; Patient 5, E-EPA increased to 4 g/day", "result": "helped with their panic attacks"}, {"measurement": "anxiety", "setting": "[1]; [4]", "result": "did not improve"}, {"measurement": "weight, eating habits and mood", "setting": "[1]; [4]", "result": "dramatic improvement"}, {"measurement": "BMI", "setting": "[1]; Patient 5, after three months, 1 g/day, 17.15 before", "result": 20}, {"measurement": "ABW", "setting": "[1]; Patient 5, after three months, 1 g/day, 77% before", "result": 90, "unit": "%"}, {"measurement": "anorexic symptoms", "setting": "[1]; [5]", "result": "complete resolution"}, {"measurement": "growth in height", "setting": "[1]; [5]", "result": 3, "unit": "cm"}, {"measurement": "BMI", "setting": "[1]; Patient 6, end of three months, 1 g/day, 17.57 at first presentation", "result": 19.1}, {"measurement": "ABW", "setting": "[1]; Patient 6, end of three months, 1 g/day, 87% at first presentation", "result": 93.6, "unit": "%"}, {"measurement": "clinical response", "setting": "[1]; Patient 6, within the first 4-6 weeks, 1 g/day", "result": "improved dramatically"}, {"measurement": "growth in height", "setting": "[1]; Patient 7, during three months treatment", "result": 1.5, "unit": "cm"}, {"measurement": "BMI", "setting": "[1]; Patient 7, end of three months treatment, 1 g/day, 14.8 before", "result": 16.21}, {"measurement": "ABW", "setting": "[1]; Patient 7, end of three months treatment, 1 d/day, 78.21 before", "result": 84.5, "unit": "%"}, {"measurement": "clinical response (appetite, mood, self-esteem, psychometric measures)", "setting": "[1]; Patient No 1, after 2 months of treatment", "result": "remarkable improvement"}, {"measurement": "BMI", "setting": "[1]; Patient No 1, after three months of 1 g E-EPA, 16.9 at hospital admission", "result": 22.8}, {"measurement": "ABW", "setting": "[1]; Patient No 1, after three months of 1 g E-EPA, 83.6% at hospital admission", "result": 111, "unit": "%"}, {"measurement": "relapse of anorexia", "setting": "[1]; Patient No 1, one-year follow-up, E-EPA stopped after three months", "result": "no return of their anorexia"}, {"measurement": "cases with complete recovery", "setting": "[1]; of the seven patients", "result": "three"}, {"measurement": "cases with partial improvement", "setting": "[1]; of the seven patients", "result": "four"}, {"measurement": "growth response", "setting": "[1]; patients who had growth delay, during the time of the E-EPA treatment", "result": "significant growth"}, {"measurement": "deterioration whilst taking the E-EPA", "setting": "[1]; seven patients", "result": "no patient deteriorated"}, {"measurement": "body image perceptions", "setting": "[2]; 1 g/d, over 12 weeks", "result": "lost their distorted body image perceptions"}, {"measurement": "mood and cognitive functions", "setting": "[2]; 1 g/d, over 12 weeks", "result": "improved"}, {"measurement": "eating", "setting": "[2]; 1 g/d, over the following weeks", "result": "began to eat normally"}, {"measurement": "Wt kg", "setting": "[2]; 2nd hospital discharge on EPA (12 weeks, 1 g/d), 42 at 2nd hospital admission", "result": 57, "unit": "kg"}, {"measurement": "MR-O (Morgan-Russell overall scale)", "setting": "[2]; 2nd hospital discharge on EPA, scored 0 to 12, 12 completely normal, 1.2 at 2nd admission", "result": 12.0}, {"measurement": "MR-A (food intake)", "setting": "[2]; 2nd hospital discharge on EPA, scored 0 to 12, 0.0 at 2nd admission", "result": 12.0}, {"measurement": "MR-E (overall social-economic-health state)", "setting": "[2]; 2nd hospital discharge on EPA, scored 0 to 12, 1.0 at 2nd admission", "result": 9.0}, {"measurement": "MR-C (mental state)", "setting": "[2]; 2nd hospital discharge on EPA, scored 0 to 12, 4.0 at 2nd admission", "result": 8.0}, {"measurement": "Wt kg", "setting": "[2]; 3 months after discharge", "result": 63, "unit": "kg"}, {"measurement": "MR-A (food intake)", "setting": "[2]; [6]", "result": 12.0}, {"measurement": "MR-C (mental state)", "setting": "[2]; [6]", "result": 12.0}, {"measurement": "MR-E (overall social-economic-health state)", "setting": "[2]; [6]", "result": 11.0}, {"measurement": "MR-O (Morgan-Russell overall scale)", "setting": "[2]; [6]", "result": 12.0}, {"measurement": "body weight stabilised", "setting": "[2]; after discharge from hospital at 12 weeks", "result": "62 to 65", "unit": "kg"}, {"measurement": "body weight", "setting": "[2]; within 12 weeks of 1 g/d, 42 kg at start", "result": 57, "unit": "kg"}]}
